Data reported in ChEMBL document CHEMBL1144481, “Cholinesterase inhibitors: SAR and enzyme inhibitory activity of 3-[omega-(benzylmethylamino)alkoxy]xanthen-9-ones” (Bioorg Med Chem, 2007).

Legend:
Homo sapiens [1] = species on record: Homo sapiens; test: Ratio of IC50 for AchE to IC50 for BuChE
Acetylcholinesterase = Acetylcholinesterase (Homo sapiens, UniProt P22303); test: Inhibition of human erythrocyte AchE
Cholinesterase = Cholinesterase (Homo sapiens, UniProt P06276); test: Inhibition of human serum BuChE
Homo sapiens [2] = species on record: Homo sapiens; test: Ratio of IC50 for BuChE to IC50 for AchE

Acetylcholinesterase, sequence (P22303 whole entry): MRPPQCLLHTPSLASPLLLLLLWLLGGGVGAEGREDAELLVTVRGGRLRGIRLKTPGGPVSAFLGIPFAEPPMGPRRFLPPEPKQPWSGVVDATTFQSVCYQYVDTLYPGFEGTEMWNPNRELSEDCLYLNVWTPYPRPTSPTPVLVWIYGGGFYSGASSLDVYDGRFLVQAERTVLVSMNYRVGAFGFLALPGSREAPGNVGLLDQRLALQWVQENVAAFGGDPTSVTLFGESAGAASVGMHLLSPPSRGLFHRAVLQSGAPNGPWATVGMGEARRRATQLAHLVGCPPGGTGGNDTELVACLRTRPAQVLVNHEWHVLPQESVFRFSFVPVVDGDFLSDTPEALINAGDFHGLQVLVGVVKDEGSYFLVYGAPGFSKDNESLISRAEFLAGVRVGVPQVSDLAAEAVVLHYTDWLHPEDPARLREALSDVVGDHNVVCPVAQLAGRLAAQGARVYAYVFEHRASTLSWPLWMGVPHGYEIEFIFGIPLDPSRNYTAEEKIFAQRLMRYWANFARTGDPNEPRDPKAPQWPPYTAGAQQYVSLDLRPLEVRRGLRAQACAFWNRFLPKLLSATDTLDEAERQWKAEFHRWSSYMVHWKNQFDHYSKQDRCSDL
Cholinesterase, sequence (P06276 whole entry): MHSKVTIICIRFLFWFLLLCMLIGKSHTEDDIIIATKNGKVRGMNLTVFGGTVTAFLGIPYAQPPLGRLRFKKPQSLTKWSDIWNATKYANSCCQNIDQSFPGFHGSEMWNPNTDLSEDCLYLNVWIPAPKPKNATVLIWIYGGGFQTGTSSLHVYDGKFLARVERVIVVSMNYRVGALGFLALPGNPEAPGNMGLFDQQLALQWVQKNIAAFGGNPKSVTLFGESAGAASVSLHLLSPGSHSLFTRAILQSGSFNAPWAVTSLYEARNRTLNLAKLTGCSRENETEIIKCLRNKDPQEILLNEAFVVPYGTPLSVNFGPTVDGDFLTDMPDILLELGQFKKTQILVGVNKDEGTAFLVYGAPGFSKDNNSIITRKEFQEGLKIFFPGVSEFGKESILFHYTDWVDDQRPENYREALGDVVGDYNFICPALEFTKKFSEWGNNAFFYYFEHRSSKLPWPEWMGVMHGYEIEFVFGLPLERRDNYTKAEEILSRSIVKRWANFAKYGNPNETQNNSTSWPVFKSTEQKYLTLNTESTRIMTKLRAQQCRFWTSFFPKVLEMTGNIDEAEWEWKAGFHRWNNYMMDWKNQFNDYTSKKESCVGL

Structure (SMILES) | Ratio IC50 (Homo sapiens [1]) | IC50 (Acetylcholinesterase) [µM] | IC50 (Cholinesterase) [µM] | Ratio IC50 (Homo sapiens [2])
CN(CCCCCCCOc1ccc2c(=O)c3ccccc3oc2c1)Cc1ccccc1Cl | 1.6 | 433 | 269 | 0.62
CN(CCCOc1ccc2c(=O)c3ccccc3oc2c1)Cc1ccccc1 | 0.32 | 2.68 | 8.33 | 3.11
CN(CCCCCOc1ccc2c(=O)c3ccccc3oc2c1)Cc1ccccc1 | 3.12 | 7.78 | 2.49 | 0.32
CN(CCCCCCCCCCOc1ccc2c(=O)c3ccccc3oc2c1)Cc1ccccc1 | 3880 |  |  | 
CN(CCCCCCOc1ccc2c(=O)c3ccccc3oc2c1)Cc1ccccc1 | 2.02 | 2.89 | 1.43 | 0.49
CN(CCCCCCCCCOc1ccc2c(=O)c3ccccc3oc2c1)Cc1ccccc1 | 1520 |  |  | 
CN(CCCCCCCCOc1ccc2c(=O)c3ccccc3oc2c1)Cc1ccccc1 | 129 | 10.3 | 0.08 | 0.008
COc1ccc2c(=O)c3ccc(OCCCCCCCN(C)Cc4ccccc4)cc3oc2c1 | 0.17 | 7.84 | 46.1 | 5.9
COc1ccc(CN(C)CCCCCCCOc2ccc3c(=O)c4ccccc4oc3c2)cc1 | 171 | 360 | 2.11 | 0.006
COc1ccccc1CN(C)CCCCCCCOc1ccc2c(=O)c3ccccc3oc2c1 | 2.34 | 2.18 | 0.93 | 0.43
COc1ccc(CN(C)CCCCCCCOc2ccc3c(=O)c4ccccc4oc3c2)c(OC)c1OC | 155 | 155 | 1 | 0.006
COc1cccc(CN(C)CCCCCCCOc2ccc3c(=O)c4ccccc4oc3c2)c1 | 21.6 | 40 | 1.85 | 0.05
COc1ccccc1CN(C)CCCOc1ccc2c(=O)c3ccccc3oc2c1 | 1.78 | 3.4 | 1.91 | 0.56
CCN(CCCCCCCOc1ccc2c(=O)c3ccccc3oc2c1)Cc1ccccc1OC | 9.8 | 3.15 | 0.32 | 0.1
COc1cc2oc3cc(OCCCCCCCN(C)Cc4ccccc4)ccc3c(=O)c2cc1OC | 0.75 | 2.32 | 3.08 | 1.33
CN(CCCCOc1ccc2c(=O)c3ccccc3oc2c1)Cc1ccccc1 | 2.36 | 6.25 | 2.65 | 0.42
CN(CCCCCCCOc1ccc2c(=O)c3ccccc3oc2c1)Cc1ccccc1[N+](=O)[O-] | 29.5 | 413 | 14 | 0.03
COc1ccc(OC)c(CN(C)CCCCCCCOc2ccc3c(=O)c4ccccc4oc3c2)c1 | 100 | 127 | 1.27 | 0.01
CN(CCCCCCCOc1ccc2c(=O)c3ccccc3oc2c1)Cc1ccc(Cl)cc1 | 8.26 | 1050 | 127 | 0.12
CN(CCCCCCCCCCCCOc1ccc2c(=O)c3ccccc3oc2c1)Cc1ccccc1 | 6050 |  |  | 
CN(CCCCCCCOc1ccc2c(=O)c3ccccc3oc2c1)Cc1ccccc1 | 3.52 | 2.82 | 0.8 | 0.28
Cc1ccccc1CN(C)CCCCCCCOc1ccc2c(=O)c3ccccc3oc2c1 | 19.1 | 565 | 29.5 | 0.05
COc1cccc(CN(C)CCCCCCCOc2ccc3c(=O)c4ccccc4oc3c2)c1OC | 68.7 | 138 | 2.01 | 0.014
CN(CCCCCCCCCCCOc1ccc2c(=O)c3ccccc3oc2c1)Cc1ccccc1 | 5220 |  |  | 
CNC(=O)Oc1cccc(CN(C)CCCCCCCOc2ccc3c(=O)c4ccccc4oc3c2)c1 | 0.019 |  |  | 51.6
CN(CCCCCCCOc1ccc2c(=O)c3ccccc3oc2c1)Cc1cccc(Cl)c1 | 9.3 | 594 | 63.8 | 0.1
